This is an account of results in ChEMBL document CHEMBL3507680, “University of Dundee, Gates Library screen for HepG2 cell viability”.

This data set can be described thus: Human HepG2 cell viability assay in 384 well format. It is filed as toxicity, cell-based. Details: dose 125 nL, time 70.5 hour; concentration not given beside the values. The note with it: HepG2 cells, read-out: Inhibition.

In the case of `Cc1cc(CN2CCC(CNS(=O)(=O)c3ccccc3Cl)CC2)c(C)o1`, the cytotoxicity at 70.5 h is -10.4%. `CS(=O)(=O)NCC1CCN(C(=O)Oc2ccccc2)CC1`: the cytotoxicity at 70.5 h was -3.79%.

Turning to `COc1ccc(S(=O)(=O)NCCCc2ccc(N(C)C)cc2)cc1F`, the cytotoxicity at 70.5 h was -1.57%. With `CCOc1ccc(S(=O)(=O)NCCCc2ccc(N(C)C)cc2)cc1F`, the cytotoxicity at 70.5 h amounted to 0.733%. For `CCOCC(=O)NCC1CCN(Cc2ccsc2)CC1`, the cytotoxicity at 70.5 h worked out at 1.54%. In the case of `CCn1nccc1C(=O)Nc1nc(C)c(C(C)=O)s1`, the cytotoxicity at 70.5 h was -5.2%. Consider `Cc1nnc2ccc(OCCNS(=O)(=O)c3cccs3)nn12`, for which the cytotoxicity at 70.5 h is -9.99%.

For `Cc1ccc(C)c(S(=O)(=O)NCCOc2ccc3nnc(C)n3n2)c1`, the cytotoxicity at 70.5 h amounted to 42.7%.

Turning to `CC(=O)Nc1ccc(SCC(=O)NCC2CCCO2)nn1` (stereo unspecified), the cytotoxicity at 70.5 h was -2.02%. Then `COc1cccc(OC)c1C(=O)NCC(c1cccn1C)N1CCCC1` (stereo unspecified), with -5.44%; and `Cn1cccc1C(CNC(=O)COc1ccc(Cl)cc1Cl)N1CCCC1` (stereo unspecified), with -16.7%; and `COc1ccc(C(=O)NCC(c2cccn2C)N2CCN(C)CC2)cc1` (stereo unspecified), with -4.93%. With `COc1ccc(S(=O)(=O)NCC(c2cccn2C)N(C)C)c(C)c1` (stereo unspecified), the cytotoxicity at 70.5 h was -12.6%. `Cc1nnc(C2CCN(C(=O)c3ccsc3)CC2)s1`: the cytotoxicity at 70.5 h is -5.71%. Take `COC(=O)c1ccc(C(=O)N2CCC(c3nnc(C)s3)CC2)cc1`: the cytotoxicity at 70.5 h is -10.2%. For `O=S(=O)(c1cccs1)N1CCN(Cc2nc(-c3ccco3)cs2)CC1`, the cytotoxicity at 70.5 h came to 1.85%. `O=S(=O)(c1ccc(Cl)s1)N1CCN(Cc2nc(-c3ccco3)cs2)CC1`: the cytotoxicity at 70.5 h was -13.8%.

On to `CCS(=O)(=O)N1CCC(c2nnc(C3CC3)o2)CC1`, for which the cytotoxicity at 70.5 h is 3.63%. Then `CC(C)CNC(=O)c1cn(C(C)C)cc2c(=O)[nH]nc1-2`, with -7.94%.

For the compound `CC(C)n1cc(C(=O)NCCCn2ccnc2)c2n[nH]c(=O)c-2c1`, the cytotoxicity at 70.5 h was -6.63%. With `Cc1csc(NC(=O)Cn2nc(C)ccc2=O)n1`, the cytotoxicity at 70.5 h is -9.42%. Regarding `COCCc1nnc(NC(=O)Cc2ccccc2Cl)o1`, the cytotoxicity at 70.5 h is -13.9%. The figure for `Cc1nccn1CC1CCN(C(=O)c2ccccc2)CC1` is -7.01%. Then `COc1ccc(S(=O)(=O)N2CCC(Cn3ccnc3)CC2)cc1`, with -6.35%. Then `CS(=O)(=O)N1CCC(C(=O)N2CCC(Cn3cccn3)CC2)CC1`, with -12.3%; and `O=C(Nc1ccc(CC(=O)N2CCCC2)cc1)NC1CC1`, with -7.44%. Consider `O=C(CSC1CCCC1)N1CCN(C(=O)C2CC2c2cccs2)CC1` (stereo unspecified), for which the cytotoxicity at 70.5 h amounted to 33.2%.

Take `O=C(NCC(O)(c1ccco1)C1CC1)c1ccccc1F` (stereo unspecified): the cytotoxicity at 70.5 h was -14.8%.

Turning to `Cn1cccc1C(O)CNC(=O)c1cccc(Cl)c1` (stereo unspecified), the cytotoxicity at 70.5 h is -9.53%.

Take `Cc1c(Cl)cccc1S(=O)(=O)NCC(O)c1cccn1C` (stereo unspecified): the cytotoxicity at 70.5 h is -3.24%. With `Cc1ccsc1C(O)CNC(=O)Cc1ccc(S(=O)(=O)C(C)C)cc1` (stereo unspecified), the cytotoxicity at 70.5 h was -13.3%. Then `COc1ccc(CC(C)(O)CNC(=O)Cc2cccs2)cc1` (stereo unspecified), with 11.8%; and `O=S(=O)(NCC1(O)CCCC1)c1ccccc1Br`, with -0.293%; and `CCCc1nnsc1C(=O)NCC(O)c1cccs1` (stereo unspecified), with -6.4%.

Turning to `Cc1ccccc1NC(=O)NCC(C)(O)c1cccs1` (stereo unspecified), the cytotoxicity at 70.5 h came to 4.31%. As to `CCS(=O)(=O)N1CCN(CC(F)(F)F)CC1`, the cytotoxicity at 70.5 h was -5.53%. For the compound `O=C(Cn1cnc(-c2cccs2)cc1=O)Nc1cccnc1`, the cytotoxicity at 70.5 h is -4.25%. Turning to `CC(=O)Nc1ccc(C(=O)NCCCn2cccc2)cc1`, the cytotoxicity at 70.5 h was -14.1%. With `O=C(NCC1(CO)CC1)c1ccccc1Br`, the cytotoxicity at 70.5 h is -8.75%.

On to `COCC(C)(O)CNC(=O)Nc1cccc(OC)c1OC` (stereo unspecified), for which the cytotoxicity at 70.5 h was -11%. The figure for `COC1COC2(CCN(C(=O)c3cocn3)CC2)C1` (stereo unspecified) is -8.06%; for `O=C(C1CC1)N1CC[C@H]2C(=O)N(c3ccsc3)CCO[C@H]2C1` it is -11.7%; for `O=C(Nc1ccccc1)C1=NOC2(CCCNC2)C1` (stereo unspecified) it is 18.4%.

For `CC(=O)N1CC2(CCN(C(=O)N(C)C)CC2)c2cc(C)ccc21`, the cytotoxicity at 70.5 h amounted to 5.58%. Then `CN(Cc1cccnc1)C1CC2(CCN(C(=O)c3cscn3)CC2)C1`, with 8.2%; and `Cc1ccc(N2CCC3(CCN(Cc4csc(C)n4)CC3)CC2)nn1`, with -6.42%. Turning to `Cc1nc(CN2CCC(N(C)Cc3nnc(C4CC4)n3C)C2)cs1` (stereo unspecified), the cytotoxicity at 70.5 h is -1.39%.

Consider `Cc1ccccc1CNC(=O)CN1CCCC(Cc2nccn2C)C1` (stereo unspecified), for which the cytotoxicity at 70.5 h is -1.13%. As to `CCNC(=O)NC(=O)CNC(C)(C)c1ccc2c(c1)OCO2`, the cytotoxicity at 70.5 h was -4.4%. Then `CCCNC(=O)NC(=O)CNC(C)(C)c1ccc2c(c1)OCCO2`, with -2.49%; and `Cc1ccc(N2CCCN(C(=O)CCC3CCCO3)CC2)nn1` (stereo unspecified), with 4.12%; and `COc1ccccc1N1CCC(CNCc2ccc(C#N)cc2)C1` (stereo unspecified), with 2.02%. Then `Cc1cc(CN2CCC(N(C)Cc3nnc(C4CC4)n3C)C2)on1` (stereo unspecified), with -2.5%; and `Cc1nn(C)c(Cl)c1C1CCCN1C(=O)c1ccc(O)nc1` (stereo unspecified), with 23.1%; and `CC1COCCN1Cc1nc(-c2cccc(C(F)(F)F)c2)no1` (stereo unspecified), with -2.89%.

For the compound `Cc1nn(C)c(N(C)C)c1CNCc1cccc(Cn2ccnc2)c1`, the cytotoxicity at 70.5 h was 3.64%. Take `O=C(CCc1nccs1)N1CCCC(n2cccn2)C1` (stereo unspecified): the cytotoxicity at 70.5 h stood at 1.23%.

`Cc1cnn(C2CCCN(C(=O)CCCc3ccccn3)C2)c1` (stereo unspecified): the cytotoxicity at 70.5 h was -1.28%. In the case of `CC(C)n1cc(CN2CCCN(C(=O)CC3CCCO3)CC2)cn1` (stereo unspecified), the cytotoxicity at 70.5 h was -4.54%. In the case of `Cc1nc(C)n(CC2CCCN(Cc3cccnc3)C2)n1` (stereo unspecified), the cytotoxicity at 70.5 h is -0.814%. With `CC(C(=O)Nc1ccc(N2CCCCC2)nc1)n1ccnc1` (stereo unspecified), the cytotoxicity at 70.5 h worked out at 25.5%. Then `COc1c(C2CCCN2C(=O)c2ccc3c(c2)OCO3)c(C)nn1C` (stereo unspecified), with -2.19%. As for `COc1c(CNCc2cccc(Cn3cncn3)c2)c(C)nn1C`, the cytotoxicity at 70.5 h is -0.463%. The figure for `Cc1nn(C)c(Cl)c1C1CCCN1C(=O)c1cccc(C#N)c1` (stereo unspecified) is 0.647%; for `COc1cccc(-c2noc(CN3CCOCC3C)n2)c1` (stereo unspecified) it is -2.13%.

For the compound `CC(C(=O)Nc1ccc(N2CCCCC2)nc1)n1cncn1` (stereo unspecified), the cytotoxicity at 70.5 h is 26.7%. Take `O=C(NCC1CCCOC1)c1ccc(-c2ccccc2)[nH]c1=O` (stereo unspecified): the cytotoxicity at 70.5 h is 0.0722%.

In the case of `Cc1cccc(-c2ccc(C(=O)NCC3CCCOC3)c(=O)[nH]2)c1` (stereo unspecified), the cytotoxicity at 70.5 h was -9.36%. The figure for `O=C(NCC1CCOC1)c1ccc(-c2ccccc2)[nH]c1=O` (stereo unspecified) is -7.11%. Then `Cc1cnn(C2CCCN(C(=O)CCc3c(C)noc3C)C2)c1` (stereo unspecified), with -2.08%. Regarding `Cc1nn(CC(C)C)c(N(C)C)c1CNCc1ccccc1CO`, the cytotoxicity at 70.5 h is -0.0473%.

On to `Cc1nccn1CCCC(=O)N1CCCC(c2noc(C(C)C)n2)C1` (stereo unspecified), for which the cytotoxicity at 70.5 h is -2.96%. For the compound `CC(C)c1nc(C2CCCN(C(=O)CCn3cncn3)C2)no1` (stereo unspecified), the cytotoxicity at 70.5 h was -2.58%. For `Cc1nn(C)c(Cl)c1C1CCCN1C(=O)c1ccoc1C` (stereo unspecified), the cytotoxicity at 70.5 h is -4.13%. Turning to `Cc1nn(C)c(Cl)c1C1CCCN1C(=O)c1ccc2c(c1)COC2` (stereo unspecified), the cytotoxicity at 70.5 h was -0.781%. The figure for `Cc1nc(CN2CCCC(c3cc(C(N)=O)[nH]n3)C2)oc1C` (stereo unspecified) is -1.85%; for `COc1ccccc1CNC(C)c1ccc2[nH]c(=O)[nH]c2c1` (stereo unspecified) it is 1.17%; for `Cc1ccccc1C1(C(=O)NCCN2CCCC(C)C2)CCOCC1` (stereo unspecified) it is 32.7%. Regarding `Cc1ccccc1C1(C(=O)NCCN2CCCCC2C)CCOCC1` (stereo unspecified), the cytotoxicity at 70.5 h was -6.68%. Then `Cc1ccccc1C1(C(=O)NCCN(C)C)CCOCC1`, with -3.78%; and `c1cc(-c2noc(CN3CCn4c(nnc4C4CC4)C3)n2)cs1`, with -19.2%. The figure for `Cc1nc2n(n1)CC(NCc1cnn(-c3ccccc3)n1)CC2` (stereo unspecified) is -9.59%; for `COc1ccc(NC(=O)NCc2ccnc(N(C)C)c2)cn1` it is 14.3%; for `O=C(c1sccc1Br)N(Cc1cccnc1)C1CC1` it is -13.1%. The figure for `Cc1cnn(C2CCCN(C(=O)c3cccc(-n4cnnn4)c3)C2)c1` (stereo unspecified) is -3.6%; for `Cc1nnc2n1CCN(Cc1nc(-c3ccoc3)no1)C2` it is 13.6%; for `CCC(=O)N1CCN(C(=O)NCCOc2ccc3c(c2)CCC3)CC1` it is -8.5%.

For the compound `Cc1ccc(-c2nnc(CN3CCCC(Cn4cncn4)C3)o2)cc1` (stereo unspecified), the cytotoxicity at 70.5 h is -1.97%. The figure for `c1ccc(-c2nnc(CN3CCCC(Cn4cncn4)C3)o2)cc1` (stereo unspecified) is -7.29%; for `O=C(O)c1cc(S(=O)(=O)N2CCOc3ccccc32)cc(Cl)c1Cl` it is -9.63%; for `O=C(O)c1ccc(F)c(S(=O)(=O)N2CCOc3ccccc32)c1` it is -4.17%. `Cc1cc(C)c(C(=O)N2CCOCC2c2c(C)n[nH]c2C)o1` (stereo unspecified): the cytotoxicity at 70.5 h is -6.5%. With `Cc1nccn1C1CCCN(C(=O)c2sccc2-n2cnnn2)C1` (stereo unspecified), the cytotoxicity at 70.5 h was -8.22%.

For the compound `CC(NCc1c(C(C)C)nn(C)c1N1CCOCC1)C(=O)N(C)C` (stereo unspecified), the cytotoxicity at 70.5 h amounted to 23%. For `Cc1nn(C)c(N(C)C)c1CNCCS(C)(=O)=O`, the cytotoxicity at 70.5 h came to 20.1%.

In the case of `c1cnc(-c2nc(CNC3CCc4ncnn4C3)cs2)nc1` (stereo unspecified), the cytotoxicity at 70.5 h is -6.68%.

For the compound `Cc1cc(C(=O)N2CCN(C)CC2)nn1CC(=O)NCc1cccs1`, the cytotoxicity at 70.5 h is -4.64%. The figure for `O=C(CN1CCN(CC(O)C2CC2)CC1)NCc1ccccc1` (stereo unspecified) is -8.44%; for `OC(CN1CCN(Cc2ccccc2)CC1)C1CC1` (stereo unspecified) it is -10.4%; for `CC(C)N1CC[C@@H]2[C@H](COCC3CC3)CN(C)C(=O)[C@@H]2CC1` it is 4.19%.

Turning to `O=C(c1cnccn1)N1CC[C@@H]2CO[C@@H](CN3CCCC3)[C@@H]2C1`, the cytotoxicity at 70.5 h is -5.22%.
